The values that follow come from patent US10065990B2, “Cyclic peptide compound, and preparation method, pharmaceutical composition and use thereof” (HANGZHOU GUANYU BIO-MEDICAL CO., LTD, priority 2013, dated 2018).

Where two headings read alike, the source gives them in different places.

For one assay, the target named is HDAC2 (Homo sapiens, UniProt Q92769). Put plainly: HDAC biochemical activity measurement (fluorescent substrate deacetylation). The note with it: 37° C. 30 minutes.
Another assay concerns the target HDAC1 (Homo sapiens, UniProt Q13547). The description is as above.
Assay [1] concerns K562 (human leukemia cells). Put plainly: MTT cancer cell growth inhibition. The class given is cell-based. The note with it: Homo sapiens, K562, 72 h, MTT, 72 hours incubation, K562 cells; read-out: GI50 K562. The method, boiled down:
(§1)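 GI50 values come from MTT viability: after 72 h compound exposure (final 10^−5–10^−10 M, three wells each) of cells plated overnight at 1500/well in 10% FBS medium, MTT was given for 4 h. The DMSO-solubilised formazan was then measured at 570 nm.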

In assay [2] the test system is Hela (human cervical cancer cells). Put plainly: MTT cancer cell growth inhibition. The class given is cell-based. To be noted: Homo sapiens, HeLa, 72 h, MTT, 72 hours incubation, read-out: GI50 Hela. The method, boiled down: as §1
The subject of assay [3] is H1975 (non-small cell lung adenocarcinoma). Put plainly: MTT cancer cell growth inhibition. The class given is cell-based. The note with it: Homo sapiens, NCI-H1975, 72 h, MTT, 72 hours incubation, H1975 cells; read-out: GI50 H1975. An outline of the steps: as §1
Assay [4] deals with KBM-5 (human chronic myelogenous leukemia). Put plainly: MTT cancer cell growth inhibition. To be noted: Homo sapiens, KBM5, 72 h, MTT, 72 hours incubation, KBM-5 cells; read-out: GI50 KBM-5. The class given is cell-based. The method, boiled down: as §1
Assay [5] concerns HT1080 (human fibrosarcoma cells). Put plainly: MTT cancer cell growth inhibition. The class given is cell-based. The note with it: Homo sapiens, HT-1080, 72 h, MTT, 72 hours incubation, read-out: GI50 HT1. An outline of the steps: as §1
For assay [6], the system named is A549 (human lung cancer cells). Put plainly: MTT cancer cell growth inhibition. The class given is cell-based. The note with it: Homo sapiens, A549, 72 h, MTT, 72 hours incubation, read-out: GI50 A54. The method, boiled down:
as §1

The subject of assay [7] is KBM5-T315I (human chronic myelogenous leukemia). Put plainly: MTT cancer cell growth inhibition. The class given is cell-based. The note with it: Homo sapiens, 72 h, MTT, 72 hours incubation, KBM5-T315I cells; read-out: GI50 KBM5-T315I. An outline of the steps:
as §1

Assay [8] deals with DU145 (human prostate cancer cells). Briefly: MTT cancer cell growth inhibition. The note with it: Homo sapiens, DU-145, 72 h, MTT, 72 hours incubation, read-out: GI50 Du1. The class given is cell-based. An outline of the steps:
as §1

Assay [9] relates to N-87 (human gastric cancer cells). Briefly: MTT cancer cell growth inhibition. The class given is cell-based. To be noted: Homo sapiens, 72 h, MTT, 72 hours incubation, N-87 cells; read-out: GI50 N-87. The method, boiled down:
as §1

The test system of assay [10] is SGC-7901 (human gastric cancer cells). Briefly: MTT cancer cell growth inhibition. The class given is cell-based. The note with it: Homo sapiens, SGC-7901, 72 h, MTT, 72 hours incubation, SGC-7901 cells; read-out: GI50 SGC-7901. An outline of the steps: as §1
Assay [11] deals with MDA-MB-231 (breast cancer cells). Put plainly: MTT cancer cell growth inhibition. The note with it: Homo sapiens, MDA-MB-231, 72 h, read-out: GI50 MDA-MB-231, MTT, 72 hours incubation, MDA-MB-231 cells. The class given is cell-based. The method, boiled down:
as §1

Assay [12] has as its system PANC-1 (Pac-1, human pancreatic cancer cells). Briefly: MTT cancer cell growth inhibition. The class given is cell-based. To be noted: Homo sapiens, PANC-1, 72 h, MTT, 72 hours incubation, read-out: GI50 PAN. An outline of the steps: as §1
A further assay deals with T1, HDAC7 (Homo sapiens, UniProt Q8WUI4).
T1 sequence (Q8WUI4 1-952): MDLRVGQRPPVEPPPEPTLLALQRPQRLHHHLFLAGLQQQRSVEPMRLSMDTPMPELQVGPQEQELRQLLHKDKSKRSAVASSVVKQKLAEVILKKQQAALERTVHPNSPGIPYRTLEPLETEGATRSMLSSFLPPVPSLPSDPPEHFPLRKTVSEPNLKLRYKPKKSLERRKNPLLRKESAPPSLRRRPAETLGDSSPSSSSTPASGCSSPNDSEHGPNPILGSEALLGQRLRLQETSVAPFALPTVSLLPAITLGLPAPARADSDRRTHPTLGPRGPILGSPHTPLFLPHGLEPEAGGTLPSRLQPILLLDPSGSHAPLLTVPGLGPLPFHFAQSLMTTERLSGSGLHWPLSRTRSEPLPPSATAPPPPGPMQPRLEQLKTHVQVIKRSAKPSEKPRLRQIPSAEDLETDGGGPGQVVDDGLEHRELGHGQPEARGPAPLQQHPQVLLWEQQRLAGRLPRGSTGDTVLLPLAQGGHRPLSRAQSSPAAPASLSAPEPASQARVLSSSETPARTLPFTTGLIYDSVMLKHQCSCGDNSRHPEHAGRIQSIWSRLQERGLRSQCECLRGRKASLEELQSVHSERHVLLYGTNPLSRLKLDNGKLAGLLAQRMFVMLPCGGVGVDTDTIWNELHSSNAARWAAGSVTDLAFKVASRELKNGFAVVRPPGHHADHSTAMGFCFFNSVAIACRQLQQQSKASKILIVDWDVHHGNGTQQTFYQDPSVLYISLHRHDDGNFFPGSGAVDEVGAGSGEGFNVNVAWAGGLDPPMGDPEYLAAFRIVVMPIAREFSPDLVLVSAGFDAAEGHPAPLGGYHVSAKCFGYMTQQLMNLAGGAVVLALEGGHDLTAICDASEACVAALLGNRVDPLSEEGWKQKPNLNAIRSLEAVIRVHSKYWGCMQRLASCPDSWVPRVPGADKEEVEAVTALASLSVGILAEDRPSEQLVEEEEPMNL
Put plainly: HDAC biochemical activity measurement (fluorescent substrate deacetylation). To be noted: HDAC7; 37° C. 30 minutes.

A further assay concerns the target HDAC3 (Homo sapiens, UniProt O15379). The description is as above.
Where [13] appears, read: HDAC1, 37° C. 30 minutes, read-out: IC50 HDAC1.
[14] abbreviates: Table 3, column C, read-out: IC50 HDAC1, C (six-membered ring with substituents).
[15] abbreviates: read-out: IC50 HDAC3, HDAC3, 37° C. 30 minutes.
Setting [16] is: Table 3, read-out: IC50 HDAC1, D (non-substituent).
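For IC50 HDAC1 in this document: fluorogenic acetyl-lysine substrate (20 µM) deacetylated by HDAC1, then developer releases fluorophore read at 360 nm excitation and 460 nm emission, inhibitor incubated 30 min at 37 °C.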
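For IC50 HDAC1, C (six-membered ring with substituents) in this document: fluorogenic acetyl-lysine substrate (20 µM) deacetylated by HDAC1, then developer releases fluorophore read at 360 nm excitation and 460 nm emission, inhibitor incubated 30 min at 37 °C.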
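For IC50 HDAC1, D (non-substituent) in this document: fluorogenic acetyl-lysine substrate (20 µM) deacetylated by HDAC1, then developer releases fluorophore read at 360 nm excitation and 460 nm emission, inhibitor incubated 30 min at 37 °C.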
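For IC50 HDAC7 in this document: fluorogenic deacetylation assay using acetyl-lysine substrate at 20 µM, enzyme and compound incubated 30 min at 37 °C, then developer added, fluorescence read at 360/460 nm.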

Sequence of HDAC2 (Q92769 whole entry, species assumed): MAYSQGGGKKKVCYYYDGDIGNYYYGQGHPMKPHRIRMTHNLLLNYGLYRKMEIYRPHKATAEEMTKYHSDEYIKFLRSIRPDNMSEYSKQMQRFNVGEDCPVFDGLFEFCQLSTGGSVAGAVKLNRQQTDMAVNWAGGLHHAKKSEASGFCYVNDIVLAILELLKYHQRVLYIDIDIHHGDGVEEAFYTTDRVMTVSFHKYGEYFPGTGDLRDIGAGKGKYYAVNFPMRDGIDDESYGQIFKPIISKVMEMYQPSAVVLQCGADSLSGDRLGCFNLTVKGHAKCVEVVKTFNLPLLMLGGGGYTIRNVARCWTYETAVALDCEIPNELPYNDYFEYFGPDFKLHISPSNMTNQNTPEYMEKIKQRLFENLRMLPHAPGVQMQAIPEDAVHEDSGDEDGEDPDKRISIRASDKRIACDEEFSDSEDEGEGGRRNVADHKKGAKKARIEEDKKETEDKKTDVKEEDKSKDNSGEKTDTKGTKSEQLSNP
Sequence of HDAC3 (O15379 whole entry, species assumed): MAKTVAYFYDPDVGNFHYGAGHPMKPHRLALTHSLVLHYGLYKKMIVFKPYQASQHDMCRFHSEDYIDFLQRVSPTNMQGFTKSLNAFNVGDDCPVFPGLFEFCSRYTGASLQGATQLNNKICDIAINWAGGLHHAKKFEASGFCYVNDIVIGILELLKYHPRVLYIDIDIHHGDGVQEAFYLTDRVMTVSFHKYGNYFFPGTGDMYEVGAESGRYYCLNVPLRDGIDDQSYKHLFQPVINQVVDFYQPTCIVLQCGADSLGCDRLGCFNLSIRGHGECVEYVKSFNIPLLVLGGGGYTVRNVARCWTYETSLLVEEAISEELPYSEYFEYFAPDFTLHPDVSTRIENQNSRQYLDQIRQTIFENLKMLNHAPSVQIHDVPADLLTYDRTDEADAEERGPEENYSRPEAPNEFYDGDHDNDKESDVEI
Sequence of HDAC3 (Q9Y618 395-489 partner limits assumed, species assumed): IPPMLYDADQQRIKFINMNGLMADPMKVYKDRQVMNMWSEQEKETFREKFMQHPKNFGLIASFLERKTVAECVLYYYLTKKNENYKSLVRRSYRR
Sequence of HDAC1 (Q13547 whole entry, species assumed): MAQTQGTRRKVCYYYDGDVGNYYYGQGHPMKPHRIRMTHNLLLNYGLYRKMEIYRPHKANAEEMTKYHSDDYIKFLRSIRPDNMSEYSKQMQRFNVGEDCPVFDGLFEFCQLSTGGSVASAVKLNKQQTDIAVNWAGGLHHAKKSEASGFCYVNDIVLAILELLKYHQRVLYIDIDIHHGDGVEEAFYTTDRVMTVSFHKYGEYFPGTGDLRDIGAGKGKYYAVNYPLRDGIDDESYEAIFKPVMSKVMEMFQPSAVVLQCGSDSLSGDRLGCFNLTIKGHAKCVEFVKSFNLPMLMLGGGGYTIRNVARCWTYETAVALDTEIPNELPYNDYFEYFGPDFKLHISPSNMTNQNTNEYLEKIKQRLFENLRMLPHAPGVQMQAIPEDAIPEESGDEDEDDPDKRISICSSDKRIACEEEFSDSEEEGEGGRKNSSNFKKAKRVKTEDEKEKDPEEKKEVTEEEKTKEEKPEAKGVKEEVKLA

Take `C/C=C1\NC(=O)c2cc(F)cc(n2)CNC(=O)C[C@@H](/C=C/CCSC(C)=O)OC(=O)[C@H](Cc2cccc3ccccc23)NC1=O` [Example 79]: the IC50 on HDAC2 is 19 nM; at HDAC1 (setting [13]), 57 nM; at HDAC3, 27 nM. The GI50 in [1] turned out to be 27 nM; in assay [2], 70 nM; in assay [3], 61 nM; in assay [4] it was 76 nM; in [5] it was 90 nM; in assay [6], 50 nM. In addition, the GI50 in [7] is 28 nM; in [8], 20 nM; in assay [9] it was 22 nM; in assay [10] it was 51 nM; in assay [11], 31 nM; in assay [12], 90 nM. Further, the “IC50 HDAC7” value on HDAC7 is “no activity”.

Consider `CC(=O)SCC/C=C/[C@@H]1CC(=O)NCc2cc(F)cc(n2)C(=O)NC(=C(C)C)C(=O)N[C@@H](C(C)C)C(=O)O1` [Compound 88], for which the IC50 on HDAC2 amounted to 35 nM; on HDAC1 (setting [13]), 31 nM; on HDAC1 (setting [14]), 31 nM; at HDAC3 (setting [15]), 41 nM. For the same compound, the GI50 amounted to 34 nM in assay [1]; 70 nM in assay [2]; 53 nM in [3]; 71 nM in [4]; 60 nM in assay [5]; 20 nM in assay [6]. The GI50 is 24 nM in assay [7]; 30 nM in assay [8]; 31 nM in assay [9]; 29 nM in assay [10]; 38 nM in [11]; 60 nM in assay [12]. For the same compound, the “IC50 HDAC7” value at HDAC7 is recorded as “no activity”.

Consider `C=C1NC(=O)c2nc(ccc2F)CNC(=O)C[C@@H](/C=C/CCSC(C)=O)OC(=O)[C@H](C(C)C)NC1=O` [Compound 84], for which the IC50 worked out at 43 nM against HDAC2, 42 nM at HDAC1 (setting [13]), 42 nM at HDAC1 (setting [14]) and 29 nM at HDAC3 (setting [15]). Besides, the GI50 in [1] came to 35 nM; in assay [2], 50 nM; in [3], 55 nM; in [4], 51 nM; in assay [5] it was 70 nM; in assay [6], 40 nM. Moreover, the GI50 in assay [7] is 26 nM; in [8] it was 30 nM; in assay [9] it was 19 nM; in [10], 43 nM; in assay [11] it was 28 nM; in assay [12], 70 nM. In addition, the “IC50 HDAC7” value against HDAC7 is given as “no activity”.

For `C/C=C1\NC(=O)c2cccc(n2)CNC(=O)C[C@@H](/C=C/CCSC(=O)CCCCC)OC(=O)[C@H](C(C)C)NC1=O` [Compound 3], the IC50 was found to be 158 nM on HDAC2, 171 nM on HDAC1 (setting [13]), 171 nM on HDAC1 (setting [16]) and 145 nM at HDAC3. Also, the GI50 in assay [1] came out at 37 nM; in assay [2], 50 nM; in [3], 29 nM; in assay [4], 73 nM; in assay [5] it was 60 nM; in [6], 50 nM. Moreover, the GI50 in assay [7] was found to be 34 nM; in assay [9] it was 43 nM; in [10] it was 28 nM; in assay [11], 91 nM; in assay [12], 30 nM. Besides, on HDAC7, the “IC50 HDAC7” value was “no activity”.

For `C/C=C1\NC(=O)c2cccc(n2)CNC(=O)C[C@@H](/C=C/CCSC(=O)CCCCCC)OC(=O)[C@H](C(C)C)NC1=O` [Compound 2], the IC50 on HDAC2 came out at 163 nM; at HDAC1 (setting [13]), 192 nM; at HDAC1 (setting [16]), 192 nM; on HDAC3 (setting [15]), 177 nM. Also, the GI50 in assay [1] was found to be 51 nM; in assay [2] it was 30 nM; in assay [3] it was 34 nM; in assay [4], 51 nM; in [5], 50 nM; in assay [6], 40 nM. Also, the GI50 in assay [7] turned out to be 29 nM; in [9], 29 nM; in assay [10], 26 nM; in assay [11] it was 92 nM; in assay [12], 30 nM. In addition, the “IC50 HDAC7” value at HDAC7 is recorded as “no activity”.

Regarding `C/C=C1\NC(=O)c2ccc(SC)c(n2)CNC(=O)C[C@@H](/C=C/CCSC(=O)CCCCCCC)OC(=O)[C@H](CC)NC1=O` [Compound 173], the IC50 against HDAC2 turned out to be 31 nM; on HDAC3, 37 nM. Also, the GI50 turned out to be 53 nM in assay [1]; 60 nM in [2] (Hela cells); 36 nM in assay [3]; 13 nM in [4]; 70 nM in assay [5] (HT1080 cells); 60 nM in [6] (A549 cells). In addition, the GI50 in assay [7] is 12 nM; in assay [8] (DU145 cells), 60 nM; in [9] it was 83 nM; in assay [10] it was 23 nM; in [11], 48 nM; in [12] (PANC-1 cells), 40 nM. Also, the “IC50 HDAC7” value at HDAC7 was “no activity”.

With `C/C=C1\NC(=O)c2cc(C)cc(n2)CNC(=O)C[C@@H](/C=C/CCSC(C)=O)OC(=O)[C@H](Cc2ccccc2)NC1=O` [Example 67], the IC50 against HDAC2 is 34 nM; on HDAC3 it was 28 nM. Moreover, the GI50 was 39 nM in [1]; 40 nM in assay [2]; 34 nM in [3]; 46 nM in assay [4]; 80 nM in assay [5]; 30 nM in [6]. Further, the GI50 amounted to 26 nM in assay [7]; 30 nM in assay [8]; 51 nM in [9]; 37 nM in assay [10]; 33 nM in assay [11]; 80 nM in assay [12]. For the same compound, the “IC50 HDAC7” value against HDAC7 is “no activity”.

A word on the IC50: it is the concentration that gives 50% inhibition. A word on the GI50: it is the concentration giving 50% growth inhibition.
